The text below walks through data of publication PMC2692545 (Biochemical pharmacology, 2009).

This assay deals with C1/C2 + Gsα (VC1:IIC2 plus Gsα-GTPγS) (Canis lupus familiaris; Rattus norvegicus; Bos taurus, UniProt P26769+P30803). The experiment in a line: […]cAMP formation from [α-32P]ATP, stimulation of catalysis. In kind it is biochemical.
Chain of C1/C2 + Gsα (VC1:IIC2 plus Gsα-GTPγS) (P30803 442-656): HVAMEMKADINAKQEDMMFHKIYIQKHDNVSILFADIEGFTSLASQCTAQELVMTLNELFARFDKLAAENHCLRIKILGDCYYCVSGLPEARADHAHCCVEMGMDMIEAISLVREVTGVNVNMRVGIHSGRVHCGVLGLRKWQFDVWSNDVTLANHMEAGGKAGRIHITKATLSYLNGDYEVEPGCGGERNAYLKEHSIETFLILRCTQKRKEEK
Chain of C1/C2 + Gsα (VC1:IIC2 plus Gsα-GTPγS) (P26769 870-1081): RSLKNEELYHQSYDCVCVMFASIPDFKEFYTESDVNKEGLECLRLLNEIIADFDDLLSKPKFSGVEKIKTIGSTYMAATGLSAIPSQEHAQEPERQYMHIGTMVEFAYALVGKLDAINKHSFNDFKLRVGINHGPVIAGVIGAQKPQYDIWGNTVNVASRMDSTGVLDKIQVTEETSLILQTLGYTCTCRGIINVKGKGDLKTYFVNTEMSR
Chain of C1/C2 + Gsα (VC1:IIC2 plus Gsα-GTPγS) (P04896 2-394 partner): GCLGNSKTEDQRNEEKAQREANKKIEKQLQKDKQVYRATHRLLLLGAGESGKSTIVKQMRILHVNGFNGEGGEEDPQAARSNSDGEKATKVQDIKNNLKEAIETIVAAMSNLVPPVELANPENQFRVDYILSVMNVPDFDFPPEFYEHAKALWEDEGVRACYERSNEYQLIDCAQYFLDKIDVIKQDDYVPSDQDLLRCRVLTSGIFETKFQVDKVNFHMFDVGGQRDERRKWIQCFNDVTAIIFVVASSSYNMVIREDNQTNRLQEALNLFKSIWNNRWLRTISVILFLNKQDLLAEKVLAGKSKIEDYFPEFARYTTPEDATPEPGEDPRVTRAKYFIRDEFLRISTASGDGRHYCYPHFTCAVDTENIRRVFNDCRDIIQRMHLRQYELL
As for `C=C[C@@]1(C)CC(=O)[C@]2(O)[C@@]3(C)[C@@H](O)CCC(C)(C)[C@@H]3[C@H](OC(C)=O)[C@H](O)[C@@]2(C)O1` [6A7DA-FS], the concentration giving a half-maximal response (EC50) is 2.6 ± 1 µM.

With `C=C[C@@]1(C)CC(=O)[C@H]2[C@](C)(O1)[C@@H](OC(C)=O)[C@@H](O)[C@H]1C(C)(C)CC[C@H](O)[C@@]12C` [9d-FS], the concentration for a half-maximal effect (EC50) was 19.5 ± 0.7 µM.

For the compound `C=C[C@@]1(C)CC(=O)[C@]2(O)[C@@]3(C)[C@@H](O)CCC(C)(C)[C@@H]3[C@H](O)[C@H](OC(=O)CCCN3CCN(C)CC3)[C@@]2(C)O1` [DMB-FS], the EC50 turned out to be 27.6 ± 7 µM.

With `C=C[C@@]1(C)CC(=O)[C@]2(O)[C@@]3(C)[C@@H](O)CCC(C)(C)[C@@H]3[C@H](O)[C@H](OC(C)=O)[C@@]2(C)O1` [FS], the half-maximal effective concentration (EC50) stood at 7.4 ± 1.2 µM.
